The record followed here is patent US11865114B2, “Method for treating diseases using SMARCA2/4 degraders” (Aurigene Discovery Technologies Limited, priority 2019, dated 2024).

What all share (type): cell-based
Assay [1] has as its system RWPE-1 (ATCC CRL-11609) cells. The assay is described as follows: Anti-proliferative activity by Cell Titer Glo assay in RWPE normal cells. The method, then:
(§1) Determination of Anti-Proliferative Activity of SMARCA2/4 Degrader in Cells by Cell Titer Glo® (Promega) Assay
(§2) The prostate cancer cell lines, Vcap (ATCC #CRL-2876), LNCaP-FGC (ATCC CRL-1740), 22RV1 (ATCC CRL-2505), PC-3 (ATCC CRL-1435), DU-145 (ATCC HTB-81) and RWPE-1 (ATCC CRL-11609) were seeded in 96 well plate flat black clear bottom plates (Corning, Cat. No 3904) using respective complete media. Simultaneously cells were seeded for day 0 measurement.
(§3) On the following day, compound 43 of the present invention was added to cells from 10 mM stocks made in DMSO (Sigma Cat no. D2650). DMSO alone was used a vehicle control. Day 0 plate was terminated on day of compound addition using 50 μl of Cell Titer Glo® reagent (Promega, Cat. no G7572). Compound was incubated for 8 days, except for 22RV1 which was incubated for 6 days. Media was replenished with fresh compound on day 4. After the compound incubation, assay was terminated using 50 μl of CellTiter Glo® reagent. CellTiter Glo® Luminescent reagent determines the number of viable cells based on quantitation of ATP present which is an indicator of cell number and metabolic activity. Luminescence readings were taken in fluorescent plate reader.
(§4) Day 0 CTG measurement is designated as time zero (Tz), final CTG measurement in Vehicle control is designated as control growth DMSO (C) and test growth in the presence of drug at the nine concentration levels is designated as (Ti).
(§5) Using the measurements [time zero (Tz), growth control DMSO (C) and test growth in the presence of drug at the nine concentration levels (Ti)] the percentage growth is calculated at each of the drug concentration levels. Percentage response is calculated as: [(Ti−Tz)/(C−Tz)]×100 for Concentrations for which Ti≥Tz [(Ti−Tz)/Tz]×100 for Concentrations for which Ti<Tz
(§6) Three dose response parameters are calculated for each experimental agent. […]
(§7) Compound 43 of the present invention was analyzed against several cell lines representing normal and prostate cancer cells. […]

Assay [2] has as its system 22RV1 (ATCC CRL-2505) cells. In words: Anti-proliferative activity by Cell Titer Glo assay in 22RV1 cells. As to the method: as §1, §2, §3, §4, §5, §6, §7
Assay [3] deals with Vcap (ATCC #CRL-2876) cells. In words: Anti-proliferative activity by Cell Titer Glo assay in VCap cells. As to the method: as §1, §2, §3, §4, §5
(§8) Three dose response parameters are calculated for each experimental agent. Growth inhibition of 50% (GI50) is calculated from [(Ti−Tz)/(C−Tz)]×100=50, which is the drug concentration resulting in a 50% reduction in the net luminescence increase (measured ATP) in control cells during the drug incubation.
(§9) The LC50 (concentration of drug resulting in a 50% reduction in the measured ATP at the end of the drug treatment as compared to that at the beginning) indicating a net loss of cells following treatment is calculated from [(Ti−Tz)/Tz]×100=−50.
(§10) Compound 43 of the present invention was analyzed against several cell lines representing normal and prostate cancer cells. The cell lines used in the present invention are harboring one or more tumor specific alterations such as presence of AR, PTEN mutations or TMPRSS2-ERG fusion which are presented below.

The test system of assay [4] is DU-145 (ATCC HTB-81) cells. The assay is described as follows: Anti-proliferative activity by Cell Titer Glo assay in DU145 cells. As to the method:
as §1, §2, §3, §4, §5, §6, §7

Assay [5] deals with PC-3 (ATCC CRL-1435) cells. The assay is described as follows: Anti-proliferative activity by Cell Titer Glo assay in PC3 cells. As to the method: as §1, §2, §3, §4, §5, §8, §9, §10
Assay [6] concerns LNCaP-FGC (ATCC CRL-1740) cells. In words: Anti-proliferative activity by Cell Titer Glo assay in LNCaP-FGC cells. As to the method: as §1, §2, §3, §4, §5, §8, §9, §10

As for `Cc1ncsc1-c1ccc([C@H](C)NC(=O)[C@@H]2C[C@@H](O)CN2C(=O)[C@@H](NC(=O)CN2CCN(c3cc(-c4ccccc4O)nnc3N)CC2)C(C)(C)C)cc1` [Compound 43], the GI50 was 260 nM in assay [1] (Homo sapiens, RWPE-1, 192 h, RWPE (Normal) cells, normal AR, no PTEN mutation, no TMPRSS2-ERG fusion, 8 days incubation); 14 nM in assay [2] (Homo sapiens, 144 h, 22RV1 cells, AR dependence +, 6 days incubation); 3 nM in assay [3] (Homo sapiens, 192 h, VCap cells, AR dependence +, TMPRSS2-ERG fusion +, 8 days incubation); over 10000 nM in assay [4] (Homo sapiens, DU-145, 192 h, DU145 cells, none of the tumor-specific alterations, 8 days incubation); 51 nM in assay [5] (Homo sapiens, PC-3, 192 h, PC3 cells, PTEN mutation +, 8 days incubation); 5 nM in assay [6] (192 h, LnCapFGC cells, AR dependence +, PTEN mutation +, 8 days incubation). Besides, the Observed cell killing entry in assay [1] (RWPE (Normal) cells, 8 days incubation) is listed as “No”; in assay [2] (22RV1 cells, 6 days incubation), “No”; in assay [3] (VCap cells, 8 days incubation), “Yes”; in assay [4] (DU145 cells, 8 days incubation), “No”; in assay [5] (PC3 cells, 8 days incubation), “Yes”; in assay [6] (LnCapFGC cells, 8 days incubation), “Yes”. For the same molecule, the “Inhibition of cell growth and cell killing (in words)” value is “did not show any inhibition and cell killing” in assay [1] (normal cell (RWPE), FIG. 1); “potently inhibited with no or moderate cell killing” in assay [2] (22RV1, one tumor-specific alteration, FIG. 3A); “both growth and cell killing were potently impacted” in assay [3] (VCap, two tumor specific alterations, FIG. 4A); “neither inhibition of cell growth nor cell killing was observed” in assay [4] (DU145, none of the tumor specific alterations, FIG. 2); “potently inhibited with no or moderate cell killing” in assay [5] (PC3, one tumor-specific alteration, FIG. 3B); “both growth and cell killing were potently impacted” in assay [6] (LnCapFGC, two tumor specific alterations, FIG. 4B). For the same molecule, the CC50 in assay [3] (Homo sapiens, VCap cells, 50% reduction in measured ATP versus day 0, 8 days incubation, read-out: LC50 (the source's name)) worked out at 11 nM; in assay [5] (Homo sapiens, PC-3, PC3 cells, 50% reduction in measured ATP versus day 0, 8 days incubation, read-out: LC50 (the source's name)) it was 3410 nM; in assay [6] (LnCapFGC cells, 50% reduction in measured ATP versus day 0, 8 days incubation, read-out: LC50 (the source's name)), 22 nM.
